Test results: patent US5340821A, “Composition and method for treating Sjoegren syndrome disease” (Snow Brand Milk Products Co., Ltd., priority 1992, dated 1994)
Where a name gives a salt, the structure may show the parent alone.

What was measured:
saliva secretion [1] = assay: Saliva secretion effects in dogs; type: in vivo; conditions: four weeks, 4 female beagle dogs
Description: (§1) 2-Methylspiro(1,3-oxathiolane-5,3')quinuclidine hydrochloride of formula (II), in amounts of 0, 0.5, 3, and 18 mg/kg, was orally administered to female beagle dogs (weight: 7.1-9.6 kg) of four groups, each consisting of four dogs, one time a day and for four weeks.

saliva secretion [2] = assay: Saliva secretion effects in patients suffering from a Sjoegren syndrome disease (Saxon test); type: in vivo, human
Source text: (§2) Five subjects diagnosed to be suffering from a Sjoegren syndrome disease according to the diagnosis criteria made by the study team at the Ministry of Health and Welfare (M. Ofuji, Study Report Summary for 1977, the results for the year 1977 of Diagnostic criteria of Sjoegren's syndrome (Ministry of Health and Welfare's Sjoegren Investigational Research Group), M. Ofugi, Research Report of Ministry of Health and Welfare's specific disease Sjoegren Investigational Research Group in 1977, 3-6, 1978). To each subject was administered said hydrochloric acid addition salt of quinuclidine of formula (II) at a dose of 10 mg, three times a day, each time one hour before meal, for 4 weeks (the first course); 20 mg, three times a day, each time one hour before meal, for 4 weeks (the second course); and 30 mg, three times a day, each time one hour before meal, for 4 weeks (the third course). The Saxon test (Kohler P. F., Winter M. E., Arthritis Rheum, 28, 1128-1132 (1985)) for measuring the saliva secretion was performed before the start of the first course, and after the completion of the first, second, and third courses.

[3] = system: Sjoegren syndrome disease; assay: Observation of the patient (Sjoegren syndrome disease); type: in vivo, human
Source text: as §2

tear secretion = assay: Tear secretion effects in dogs; type: in vivo; conditions: four weeks, 4 female beagle dogs
Description: as §1

saliva secretion [4] = assay: Saliva secretion effects in human; type: in vivo; conditions: 10 tested subjects
Description: 2-Methylspiro(1,3-oxathiolane-5,3')quinuclidine hydrochloride of formula (II), in amounts of 5, 10, 20, 30, 40, 50, 60, and 70 mg, was orally administered to five men and five women, aged 20-50 years.

[5] = Toxicity Test (LD50, observation of mice for two weeks); parameters: species or system ICR (CD-1) mice; conditions: mouse, in vivo
Description: Groups of ICR (CD-1) male and female mice (age: 5 weeks, weight of male mice: 22.0-33.8 g, weight of female mice: 18.8-27.3 g), each consisting of eight mice, were used for the test. 2-methylspiro(1,3-oxathiolane-5,3')quinuclidine hydrochloride of formula (II) was orally, intravenously, or subcutaneously administered at different (high and low) doses. LD50 (50% lethal dose) was determined by the observation of mice for two weeks thereafter.

[6] = background statement; cited from earlier work

Structure (SMILES): CC1OC2(CS1)CN1CCC2CC1 (stereo not shown) [2-methylspiro(1,3-oxathiolane-5,3')quinuclidine hydrochloride]
- Number of animals secreted saliva (saliva secretion [1]; 0.5 mg/kg/day oral): 0 animals
- Number of animals secreted saliva (%) (saliva secretion [1]; 0.5 mg/kg/day oral): 0%
- Number of animals secreted saliva (saliva secretion [1]; 3.0 mg/kg/day oral): 3 animals
- Number of animals secreted saliva (%) (saliva secretion [1]; 3.0 mg/kg/day oral): 75%
- Number of animals secreted saliva (saliva secretion [1]; 18.0 mg/kg/day oral): 4 animals
- Number of animals secreted saliva (%) (saliva secretion [1]; 18.0 mg/kg/day oral): 100%
- Ratio of secreted saliva to the value before the administration in the first course (saliva secretion [2]; subject 1, after first course (10 mg three times a day)): 1.66
- Amount of secreted saliva (saliva secretion [2]; subject 1, after first course (10 mg three times a day, 4 weeks), before 0.65 g): 1.08 g
- Ratio of secreted saliva to the value before the administration in the first course (saliva secretion [2]; subject 1, after second course (20 mg three times a day)): 3.15
- Amount of secreted saliva (saliva secretion [2]; subject 1, after second course (20 mg three times a day, 4 weeks), before 0.65 g): 2.05 g
- Ratio of secreted saliva to the value before the administration in the first course (saliva secretion [2]; subject 1, after third course (30 mg three times a day)): 6.00
- Amount of secreted saliva (saliva secretion [2]; subject 1, after third course (30 mg three times a day, 4 weeks), before 0.65 g): 3.90 g
- Ratio of secreted saliva to the value before the administration in the first course (saliva secretion [2]; subject 2, after first course (10 mg three times a day)): 1.70
- Amount of secreted saliva (saliva secretion [2]; subject 2, after first course (10 mg three times a day, 4 weeks), before 0.73 g): 1.24 g
- Ratio of secreted saliva to the value before the administration in the first course (saliva secretion [2]; subject 2, after second course (20 mg three times a day)): 3.48
- Amount of secreted saliva (saliva secretion [2]; subject 2, after second course (20 mg three times a day, 4 weeks), before 0.73 g): 2.54 g
- Ratio of secreted saliva to the value before the administration in the first course (saliva secretion [2]; subject 2, after third course (30 mg three times a day)): 6.16
- Amount of secreted saliva (saliva secretion [2]; subject 2, after third course (30 mg three times a day, 4 weeks), before 0.73 g): 4.50 g
- Ratio of secreted saliva to the value before the administration in the first course (saliva secretion [2]; subject 3, after first course (10 mg three times a day)): 1.91
- Amount of secreted saliva (saliva secretion [2]; subject 3, after first course (10 mg three times a day, 4 weeks), before 0.76 g): 1.45 g
- Ratio of secreted saliva to the value before the administration in the first course (saliva secretion [2]; subject 3, after second course (20 mg three times a day)): 2.05
- Amount of secreted saliva (saliva secretion [2]; subject 3, after second course (20 mg three times a day, 4 weeks), before 0.76 g): 1.56 g
- Ratio of secreted saliva to the value before the administration in the first course (saliva secretion [2]; subject 3, after third course (30 mg three times a day)): 4.80
- Amount of secreted saliva (saliva secretion [2]; subject 3, after third course (30 mg three times a day, 4 weeks), before 0.76 g): 3.65 g
- Ratio of secreted saliva to the value before the administration in the first course (saliva secretion [2]; subject 4, after first course (10 mg three times a day)): 1.51
- Amount of secreted saliva (saliva secretion [2]; subject 4, after first course (10 mg three times a day, 4 weeks), before 0.43 g): 0.65 g
- Ratio of secreted saliva to the value before the administration in the first course (saliva secretion [2]; subject 4, after second course (20 mg three times a day)): 3.80
- Amount of secreted saliva (saliva secretion [2]; subject 4, after second course (20 mg three times a day, 4 weeks), before 0.43 g): 1.63 g
- Ratio of secreted saliva to the value before the administration in the first course (saliva secretion [2]; subject 4, after third course (30 mg three times a day)): 6.72
- Amount of secreted saliva (saliva secretion [2]; subject 4, after third course (30 mg three times a day, 4 weeks), before 0.43 g): 2.89 g
- Ratio of secreted saliva to the value before the administration in the first course (saliva secretion [2]; subject 5, after first course (10 mg three times a day)): 1.31
- Amount of secreted saliva (saliva secretion [2]; subject 5, after first course (10 mg three times a day, 4 weeks), before 0.45 g): 0.59 g
- Ratio of secreted saliva to the value before the administration in the first course (saliva secretion [2]; subject 5, after second course (20 mg three times a day)): 2.16
- Amount of secreted saliva (saliva secretion [2]; subject 5, after second course (20 mg three times a day, 4 weeks), before 0.45 g): 0.97 g
- Ratio of secreted saliva to the value before the administration in the first course (saliva secretion [2]; subject 5, after third course (30 mg three times a day)): 3.27
- Amount of secreted saliva (saliva secretion [2]; subject 5, after third course (30 mg three times a day, 4 weeks), before 0.45 g): 1.47 g
- Observation of the patient: Saliva secretion ([3]; subject 1): increased
- Observation of the patient: A dry feeling of oral cavity and irritation in the eyes ([3]; subject 2): improved
- Observation of the patient: The need for drinking water when taking food ([3]; subject 3): eliminated
- Observation of the patient: Incidence of being awaken due to dry mouth at midnight ([3]; subject 4): improved
- Number of animals secreted tear (tear secretion; 0.5 mg/kg/day oral): 0 animals
- Number of animals secreted tear (%) (tear secretion; 0.5 mg/kg/day oral): 0%
- Number of animals secreted tear (tear secretion; 3.0 mg/kg/day oral): 1 animals
- Number of animals secreted tear (%) (tear secretion; 3.0 mg/kg/day oral): 25%
- Number of animals secreted tear (tear secretion; 18.0 mg/kg/day oral): 4 animals
- Number of animals secreted tear (%) (tear secretion; 18.0 mg/kg/day oral): 100%
- Subjects showing promoted saliva secretion (saliva secretion [4]; 5 mg oral): 0 subjects
- Subjects showing promoted saliva secretion (saliva secretion [4]; 10 mg oral): 0 subjects
- Subjects showing promoted saliva secretion (saliva secretion [4]; 20 mg oral): 2 subjects
- Subjects showing promoted saliva secretion (saliva secretion [4]; 30 mg oral): 8 subjects
- Subjects showing promoted saliva secretion (saliva secretion [4]; 40 mg oral): 10 subjects
- Subjects showing promoted saliva secretion (saliva secretion [4]; 50 mg oral): 10 subjects
- Subjects showing promoted saliva secretion (saliva secretion [4]; 60 mg oral): 10 subjects
- Subjects showing promoted saliva secretion (saliva secretion [4]; 70 mg oral): 10 subjects
- LD50 at 336 h ([5]; iv, female mice): 40.8 mg/kg
- LD50 at 336 h ([5]; iv, male mice): 45.2 mg/kg
- LD50 at 336 h ([5]; po, female mice): 167 mg/kg
- LD50 at 336 h ([5]; po, male mice): 139 mg/kg
- LD50 at 336 h ([5]; sc, Subcutaneous, female mice): 78.1 mg/kg
- LD50 at 336 h ([5]; sc, Subcutaneous, male mice): 65 mg/kg

Structure (SMILES): CC(C[N+](C)(C)C)OC(N)=O (stereo not shown) [bethanechol]
- side effects [6]: comprehensive side effects such as headache, hot flush, palpitation, intrathoracic agony, nausea, emesis, diarrhea, abdominal discomfort, pyrosis, stomach discomfort, diaphoresis, and the like
